Our source for the relative cell viability values is the supplement of paper PMC10657565.

± gives the uncertainty stated by the source.

The subject of one test is HCC1806. Briefly: relative cell viability vs DMSO control (% of DMSO control); higher = less growth inhibition (higher viability). As to conditions: treatment time: 72 h. The protocol: (§1)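 Breast cancer cell lines (BT-474, HCC1806, SUM-159, SKBR-3) were seeded in triplicate in 96-well plates and treated 24 h after seeding with kinase inhibitors at 8 doses (3 nM to 30 uM). After 72 h, viability was read by CellTiter-Glo luminescence. Values were averaged over replicates and normalised to DMSO-only (0.1%) controls on each plate to give relative viability (% of DMSO).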

The subject of another test is BT-474. The test is described as above. As to conditions: treatment time: 72 h. As for the experimental part:
as §1

As to `CN[C@@H]1C[C@H]2O[C@@](C)([C@@H]1OC)n1c3ccccc3c3c4c(c5c6ccccc6n2c5c31)C(=O)N[C@H]4O` [UCN-01], the relative cell viability in the test with HCC1806 (0.003 µM) is 97.8 ± 4.1; with HCC1806 (0.01 µM), 76.3 ± 6.7; in the test on HCC1806 (0.03 µM), 36.7 ± 12; with HCC1806 (0.1 µM), 9.05 ± 0.96; with HCC1806 (0.3 µM), 8.6 ± 0.48; with HCC1806 (1 µM) it was 7.53 ± 0.63. The relative cell viability with HCC1806 (3 µM) was 2.19 ± 0.3; in the test on HCC1806 (30 µM), 0.853 ± 0.066; with BT-474 (0.003 µM), 97.4 ± 3.3; in the test on BT-474 (0.01 µM), 89.9 ± 2; in the test with BT-474 (0.03 µM), 85.5 ± 2.9; with BT-474 (0.1 µM), 85.9 ± 11. The relative cell viability was 56.9 ± 3.2 in the test with BT-474 (0.3 µM), 34.5 ± 3.3 with BT-474 (1 µM), 15.9 ± 0.39 in the test with BT-474 (3 µM) and 6.69 ± 0.4 in the test on BT-474 (30 µM).
With `C[C@]12O[C@H](C[C@]1(O)CO)n1c3ccccc3c3c4c(c5c6ccccc6n2c5c31)CNC4=O` [Lestaurtinib], the relative cell viability in the test on HCC1806 (0.003 µM) was determined as 83.42 ± 0.79; in the test on HCC1806 (0.01 µM) it was 63.1 ± 3; in the test on HCC1806 (0.03 µM), 43.6 ± 5.3; in the test on HCC1806 (0.1 µM), 16 ± 0.76; with HCC1806 (0.3 µM), 7.81 ± 0.93; with HCC1806 (1 µM), 3.73 ± 0.28. Also, the relative cell viability in the test on HCC1806 (3 µM) is 2.9 ± 0.12; in the test with HCC1806 (30 µM), 0.918 ± 0.075; in the test on BT-474 (0.003 µM) it was 87.8 ± 1.5; in the test on BT-474 (0.01 µM), 77.2 ± 3.4; with BT-474 (0.03 µM), 73.6 ± 4.1; in the test with BT-474 (0.1 µM), 66.8 ± 7.2. In addition, the relative cell viability with BT-474 (0.3 µM) was 59.5 ± 2.3; in the test with BT-474 (1 µM), 49.5 ± 2.6; in the test with BT-474 (3 µM), 37.9 ± 0.67; in the test with BT-474 (30 µM), 1.31 ± 0.099.
Turning to `CNS(=O)(=O)Nc1nccc(Cc2c(C)c3ccc(Oc4ncccn4)cc3oc2=O)c1F`, the relative cell viability in the test with HCC1806 (0.003 µM) was found to be 90 ± 7.3; with HCC1806 (0.01 µM) it was 86.2 ± 1.2; with HCC1806 (0.03 µM) it was 78.5 ± 0.86; with HCC1806 (0.1 µM), 77.8 ± 2.5; in the test with HCC1806 (0.3 µM), 74.9 ± 3.6; in the test on HCC1806 (1 µM), 75.1 ± 5.3. The relative cell viability in the test with HCC1806 (3 µM) amounted to 73.7 ± 3.6; in the test with HCC1806 (30 µM), 72.8 ± 4.9; in the test with BT-474 (0.003 µM), 98.4 ± 1.4; in the test on BT-474 (0.01 µM), 94.3 ± 1.5; with BT-474 (0.03 µM) it was 97.2 ± 2.2; with BT-474 (0.1 µM) it was 94.9 ± 5.3. Moreover, the relative cell viability is 92.8 ± 2.1 in the test on BT-474 (0.3 µM), 87.6 ± 5.1 in the test on BT-474 (1 µM), 87.6 ± 1.8 in the test on BT-474 (3 µM) and 41.6 ± 2.2 with BT-474 (30 µM).
`Cc1nc(Nc2n[nH]c3c2CN(C(=O)N[C@H](CN(C)C)c2ccccc2)C3(C)C)c2sccc2n1`: the relative cell viability in the test with HCC1806 (0.003 µM) amounted to 66.9 ± 11; in the test on HCC1806 (0.01 µM) it was 46.3 ± 6; in the test with HCC1806 (0.03 µM), 36.2 ± 1.9; in the test with HCC1806 (0.1 µM), 32.5 ± 1.8; in the test on HCC1806 (0.3 µM), 29.6 ± 1.5; with HCC1806 (1 µM) it was 19.4 ± 1.2. For the same compound, the relative cell viability came to 4.75 ± 0.17 with HCC1806 (3 µM); 2.8 ± 0.096 in the test on HCC1806 (30 µM); 96.3 ± 2.5 with BT-474 (0.003 µM); 92.7 ± 4.8 in the test on BT-474 (0.01 µM); 89.7 ± 3.5 with BT-474 (0.03 µM); 86.5 ± 2.5 with BT-474 (0.1 µM). Besides, the relative cell viability in the test with BT-474 (0.3 µM) was 82.6 ± 5.6; in the test with BT-474 (1 µM), 70 ± 6.6; with BT-474 (3 µM) it was 44 ± 2.3; in the test with BT-474 (30 µM), 21.3 ± 0.7.
For `Cn1nccc1Nc1nccc(-c2ccn([C@H](CO)c3ccc(Cl)c(F)c3)c(=O)c2)n1` [GDC-0994], the relative cell viability in the test with HCC1806 (0.003 µM) worked out at 97.15 ± 0.91; in the test on HCC1806 (0.01 µM), 94.8 ± 2.7; in the test with HCC1806 (0.03 µM), 92 ± 4.1; in the test on HCC1806 (0.1 µM) it was 88.3 ± 6.2; in the test with HCC1806 (0.3 µM), 81.5 ± 3.2; in the test on HCC1806 (1 µM), 81.6 ± 4. Also, the relative cell viability in the test on HCC1806 (3 µM) was 84.9 ± 3.7; with HCC1806 (30 µM) it was 73.5 ± 2.6; with BT-474 (0.003 µM), 102 ± 6.2; with BT-474 (0.01 µM) it was 101 ± 6.1; with BT-474 (0.03 µM) it was 97.6 ± 7.6; in the test on BT-474 (0.1 µM) it was 94.3 ± 3.5. Moreover, the relative cell viability was found to be 95.3 ± 5 in the test with BT-474 (0.3 µM), 97.8 ± 9.2 in the test with BT-474 (1 µM), 101 ± 11 with BT-474 (3 µM) and 88.4 ± 6.7 with BT-474 (30 µM).
For the compound `Cc1ccc(-n2nc(C(C)(C)C)cc2NC(=O)NCc2cc(F)ccc2Oc2ccc3c(cnn3CCO)c2)cc1` [Pexmetinib], the relative cell viability in the test with HCC1806 (0.003 µM) is 98.7 ± 2.1; with HCC1806 (0.01 µM), 100 ± 3.3; in the test on HCC1806 (0.03 µM) it was 102 ± 4.9; in the test on HCC1806 (0.1 µM), 105 ± 5.4; in the test on HCC1806 (0.3 µM), 106 ± 4.4; with HCC1806 (1 µM) it was 102 ± 3.3. Besides, the relative cell viability was 88.3 ± 4.1 in the test on HCC1806 (3 µM); 12.7 ± 1.3 in the test with HCC1806 (30 µM); 116 ± 3.7 in the test on BT-474 (0.003 µM); 118 ± 3 in the test with BT-474 (0.01 µM); 119 ± 1.9 with BT-474 (0.03 µM); 118 ± 4.1 with BT-474 (0.1 µM). Also, the relative cell viability came out at 116 ± 6.1 in the test with BT-474 (0.3 µM), 110 ± 5 in the test with BT-474 (1 µM), 105 ± 3.3 in the test on BT-474 (3 µM) and 28 ± 0.44 with BT-474 (30 µM).
Turning to `CN1CCN(c2nc(C3=C(c4c[nH]c5ccccc45)C(=O)NC3=O)c3ccccc3n2)CC1` [Sotrastaurin], the relative cell viability worked out at 101 ± 2.4 in the test with HCC1806 (0.003 µM); 98.3 ± 3.2 in the test on HCC1806 (0.01 µM); 100 ± 1.9 with HCC1806 (0.03 µM); 103 ± 2.2 with HCC1806 (0.1 µM); 103 ± 3.5 in the test with HCC1806 (0.3 µM); 104 ± 3.6 in the test with HCC1806 (1 µM). The relative cell viability stood at 103 ± 1.9 in the test with HCC1806 (3 µM); 43.3 ± 5.5 with HCC1806 (30 µM); 111 ± 4.3 in the test with BT-474 (0.003 µM); 108 ± 9.6 with BT-474 (0.01 µM); 104 ± 15 with BT-474 (0.03 µM); 99.8 ± 21 with BT-474 (0.1 µM). Moreover, the relative cell viability with BT-474 (0.3 µM) came to 91 ± 26; in the test on BT-474 (1 µM), 84.5 ± 32; with BT-474 (3 µM), 76.8 ± 29; in the test on BT-474 (30 µM), 42.4 ± 18.
For the compound `C[C@@H](NC(=O)c1ncnc(N)c1Cl)c1ncc(C(=O)Nc2cc(C(F)(F)F)c(Cl)cn2)s1` [MLN-2480], the relative cell viability in the test with HCC1806 (0.003 µM) was 102 ± 1.9; with HCC1806 (0.01 µM) it was 102 ± 1.8; with HCC1806 (0.03 µM), 103 ± 1.8; with HCC1806 (0.1 µM) it was 102 ± 2.5; in the test on HCC1806 (0.3 µM), 103 ± 2.3; with HCC1806 (1 µM), 100 ± 5. Besides, the relative cell viability worked out at 101.2 ± 0.76 in the test on HCC1806 (3 µM); 68 ± 4.8 in the test on HCC1806 (30 µM); 93.9 ± 2.1 with BT-474 (0.003 µM); 98.5 ± 6 in the test on BT-474 (0.01 µM); 97.3 ± 2.4 with BT-474 (0.03 µM); 95.8 ± 4.7 with BT-474 (0.1 µM). The relative cell viability was determined as 88.1 ± 6.3 with BT-474 (0.3 µM), 77.5 ± 3.7 with BT-474 (1 µM), 86.6 ± 9.7 with BT-474 (3 µM) and 69.5 ± 7 in the test with BT-474 (30 µM).
